{"source": "paper PMC4562762", "about": "(Drug Design, Development and Therapy, 2015)", "key": {"CEM-T cells": {"tested_on": "CEM-T cells", "test": "Cell cycle analysis of CEM-T cells", "format": "cell-based", "settings": "1 μM, 24 hours"}, "HO-1": {"tested_on": "HO-1", "test": "HO-1 mRNA expression", "format": "cell-based", "settings": "1 μM, 18S RNA normalization"}, "in vitro [1]": {"test": "in vitro", "settings": "IC50, viability of PBMCs, trypan blue, activated PBMCs"}, "[2]": {"test": "Stability in serum-free RPMI 1640 media", "format": "in vitro ADME", "settings": "serum-free RPMI 1640 medium"}, "[3]": {"test": "Stability in PBS supplemented with 10% BSA", "format": "physicochemical", "settings": "37°C"}, "[4]": {"test": "Stability in mouse serum at 37°C", "format": "in vitro ADME"}, "HIV-1 LTR / NF-κB": {"tested_on": "HIV-1 LTR / NF-κB", "test": "Basal HIV-1 LTR and NF-κB driven luciferase transcription in 293T cells", "format": "cell-based", "settings": "2 μM (legend: 1 μM)"}, "[5]": {"tested_on": "HIV-1 reverse transcription", "test": "Quantitative PCR for viral DNA", "format": "cell-based"}, "in vitro [6]": {"test": "in vitro", "settings": "human"}, "HIV-1 LTR": {"tested_on": "HIV-1 LTR", "test": "Tat-induced HIV-1 LTR and proviral pNL4-3 luciferase transcription in 293T cells", "format": "cell-based", "settings": "2 μM (legend: 1 μM)"}, "[7]": {"tested_on": "VSVG-pseudotyped HIV-1 pNL4-3 virus expressing luciferase (HIV-1 Luc)", "test": "microbe, parasite or virus in culture", "format": "cell-based", "settings": "Human immunodeficiency virus 1, read-out: IC50, one round HIV-1 infection"}, "HIV-1 gag and env mRNAs": {"tested_on": "HIV-1 gag and env mRNAs", "test": "HIV-1 gag and env mRNA expression in infected CEM-T cells", "format": "cell-based", "settings": "CEM-T cells infected with HIV-1 Luc, 1 μM, 48 hours"}, "[8]": {"settings": "CEM-T cells infected with HIV-1 Luc, compared with AZT"}}}
{"compound": "COc1cc(/C=C/C(=O)CC(=O)/C=C/c2ccc(O)c(OC)c2)ccc1O", "note": "[curcumin]", "values": [{"measurement": "effect on cell cycle progression", "setting": "CEM-T cells", "result": "no effect"}, {"measurement": "HO-1 expression in PBMCs", "setting": "HO-1", "result": "induced HO-1"}, {"measurement": "HO-1 expression in CEM-T cells", "setting": "HO-1; 24 hours", "result": "induced HO-1"}, {"measurement": "IC50", "setting": "in vitro [1]", "result": 35, "unit": "µM"}, {"measurement": "half-life", "setting": "[2]", "result": "~1", "unit": "h"}, {"measurement": "stabilizing effect of BSA (stability in PBS with 10% BSA)", "setting": "[3]", "result": "No stabilization and even a slight increase in degradation"}, {"measurement": "half-life at 50 μM", "setting": "[4]", "result": 10, "unit": "h"}, {"measurement": "effect on NF-kB driven transcription", "setting": "HIV-1 LTR / NF-κB", "result": "no effect"}, {"measurement": "effect on basal HIV-1 transcription", "setting": "HIV-1 LTR / NF-κB; HIV-1 LTR luciferase vector", "result": "no effect"}, {"measurement": "effect on HIV-1 reverse transcription (overall)", "setting": "[5]; 2 μM", "result": "inhibited HIV-1 RT"}, {"measurement": "effect on early LTR (early reverse transcription)", "setting": "[5]; [8]", "result": "inhibited early LTR similarly or better than the established HIV-1 inhibitor, AZT"}, {"measurement": "effect on late LTR formation (late reverse transcription)", "setting": "[5]; [8]", "result": "no significant effect"}, {"measurement": "IC50", "setting": "in vitro [6]", "result": 1.26, "unit": "µM"}, {"measurement": "effect on transcription from proviral pNL4-3 plasmid", "setting": "HIV-1 LTR", "result": "Neither curcumin nor curcumin A at 2 μM concentrations had an effect"}, {"measurement": "effect on Tat-induced HIV-1 transcription", "setting": "HIV-1 LTR; HIV-1 LTR luciferase + Tat vector", "result": "Neither curcumin nor curcumin A at 2 μM concentrations had an effect"}, {"measurement": "IC50", "setting": "[7]", "result": 0.7, "unit": "µM"}, {"measurement": "expression of HIV-1 gag and env mRNAs", "setting": "HIV-1 gag and env mRNAs", "result": "significantly reduced"}]}
